# What was measured:
# Pseudomonas aeruginosa [1] = assay: Antibacterial activity against Pseudomonas aeruginosa 101885 assessed as fractional inhibitory concentration index incubated for 18 hrs in presence of rifampicin by broth microdilution assay; assay type: functional
# Pseudomonas aeruginosa [2] = assay: Potentiation of chloramphenicol-induced antibacterial activity against Pseudomonas aeruginosa 101885 assessed as fold change in chloramphenicol MIC at 9.8 uM incubated for 18 hrs in presence of chloramphenicol by broth microdilution assay relative to control; assay type: functional
# Pseudomonas aeruginosa [3] = assay: Antibacterial activity against Pseudomonas aeruginosa 260-97103 infected in Galleria mellonella larvae assessed as survival of larvae treated at 3 hrs post-infection in presence of doxycycline and measured every 6 hrs for 36 hrs; assay type: functional, organism-based; settings: dose 75-100 mg/kg
# Pseudomonas aeruginosa [4] = assay: Antibacterial activity against Pseudomonas aeruginosa 259-96918 assessed as fractional inhibitory concentration index incubated for 18 hrs in presence of rifampicin by broth microdilution assay; assay type: functional
# Pseudomonas aeruginosa [5] = assay: Potentiation of chloramphenicol-induced antibacterial activity against Pseudomonas aeruginosa 259-96918 assessed as fold change in chloramphenicol MIC at 9.8 uM incubated for 18 hrs in presence of chloramphenicol by broth microdilution assay relative to control; assay type: functional
# Pseudomonas aeruginosa [6] = assay: Antibacterial activity against Pseudomonas aeruginosa 260-97103 infected in Galleria mellonella larvae assessed as survival of larvae at 75 mg/kg treated at 3 hrs post-infection in presence of chloramphenicol and measured after 24 hrs relative to control; assay type: functional
# Pseudomonas aeruginosa [7] = assay: Potentiation of chloramphenicol-induced antibacterial activity against Pseudomonas aeruginosa 264-101354 assessed as fold change in chloramphenicol MIC at 9.8 uM incubated for 18 hrs in presence of chloramphenicol by broth microdilution assay relative to control; assay type: functional
# Pseudomonas aeruginosa [8] = assay: Potentiation of chloramphenicol-induced antibacterial activity against Pseudomonas aeruginosa PAO200 harboring mexA-mexB-oprM deletion mutant assessed as fold change in chloramphenicol MIC at <=9.8 uM incubated for 18 hrs in presence of chloramphenicol by broth microdilution assay; assay type: functional; settings: dose microM <=9.8
# Pseudomonas aeruginosa [9] = assay: Antibacterial activity against Pseudomonas aeruginosa 100036 assessed as fractional inhibitory concentration incubated for 18 hrs in presence of rifampicin by broth microdilution assay; assay type: functional
# Pseudomonas aeruginosa [10] = assay: Antibacterial activity against Pseudomonas aeruginosa 100036 assessed as fractional inhibitory concentration index incubated for 18 hrs in presence of rifampicin by broth microdilution assay; assay type: functional
# Pseudomonas aeruginosa [11] = assay: Potentiation of doxycycline-induced antibacterial activity against Pseudomonas aeruginosa PAO200 harboring mexA-mexB-oprM deletion mutant assessed as fold change in doxycycline MIC at <=9.8 uM incubated for 18 hrs in presence of doxycycline by broth microdilution assay; assay type: functional; settings: dose microM <=9.8
# Pseudomonas aeruginosa [12] = assay: Antibacterial activity against Pseudomonas aeruginosa 101243 assessed as fractional inhibitory concentration index incubated for 18 hrs in presence of rifampicin by broth microdilution assay; assay type: functional
# Pseudomonas aeruginosa [13] = assay: Antibacterial activity against Pseudomonas aeruginosa 260-97103 infected in Galleria mellonella larvae assessed as survival of larvae at 75 mg/kg treated at 3 hrs post-infection in presence of chloramphenicol and measured after 18 hrs relative to control; assay type: functional
# Pseudomonas aeruginosa [14] = assay: Antibacterial activity against Pseudomonas aeruginosa 262-101856 assessed as potentiation of doxycycline-induced antibacterial activity by measuring doxycycline MIC at 9.8 uM incubated for 18 hrs in presence of doxycycline by broth microdilution assay (reference value: 1024 ug/ml); assay type: functional
# Pseudomonas aeruginosa [15] = assay: Potentiation of chloramphenicol-induced antibacterial activity against Pseudomonas aeruginosa 260-97103 assessed as fold change in chloramphenicol MIC at 9.8 uM incubated for 18 hrs in presence of chloramphenicol by broth microdilution assay relative to control; assay type: functional
# Pseudomonas aeruginosa [16] = assay: Antibacterial activity against Pseudomonas aeruginosa 259-96918 assessed as reduction in bacterial growth by measuring doxycycline MIC at 2 ug/ml incubated for 18 hrs in presence of doxycycline by broth microdilution assay (reference value: 32 ug/ml); assay type: functional; settings: dose 2 µg/ml
# Pseudomonas aeruginosa [17] = assay: Antibacterial activity against Pseudomonas aeruginosa 260-97103 assessed as potentiation of chloramphenicol-induced antibacterial activity by measuring chloramphenicol MIC at 7.6 uM incubated for 18 hrs in presence of chloramphenicol by broth microdilution assay (reference value: 128 ug/ml); assay type: functional
# Enterobacter cloacae [18] = assay: Potentiation of doxycycline-induced antibacterial activity against Enterobacter cloacae ATCC 117029 assessed as fold change in doxycycline MIC at 7.6 uM incubated for 18 hrs in presence of doxycycline by broth microdilution assay relative to control; assay type: functional
# Pseudomonas aeruginosa [19] = assay: Antibacterial activity against Pseudomonas aeruginosa 101243 assessed as potentiation of chloramphenicol-induced antibacterial activity by measuring chloramphenicol MIC at 7.6 uM incubated for 18 hrs in presence of chloramphenicol by broth microdilution assay (reference value: 1 ug/ml); assay type: functional
# Pseudomonas aeruginosa [20] = assay: Antibacterial activity against Pseudomonas aeruginosa 259-96918 assessed as potentiation of chloramphenicol-induced antibacterial activity by measuring chloramphenicol MIC at 7.6 uM incubated for 18 hrs in presence of chloramphenicol by broth microdilution assay (reference value: 1024 ug/ml); assay type: functional
# Pseudomonas aeruginosa [21] = assay: Potentiation of chloramphenicol-induced antibacterial activity against Pseudomonas aeruginosa 260-97103 assessed as fold change in chloramphenicol MIC at 7.6 uM incubated for 18 hrs in presence of chloramphenicol by broth microdilution assay relative to control; assay type: functional
# Pseudomonas aeruginosa [22] = assay: Antibacterial activity against Pseudomonas aeruginosa 101243 assessed as potentiation of doxycycline-induced antibacterial activity by measuring doxycycline MIC at 7.6 uM incubated for 18 hrs in presence of doxycycline by broth microdilution assay (reference value: 4 ug/ml); assay type: functional
# Pseudomonas aeruginosa [23] = assay: Antibacterial activity against Pseudomonas aeruginosa 100036 assessed as potentiation of chloramphenicol-induced antibacterial activity by measuring chloramphenicol MIC at 7.6 uM incubated for 18 hrs in presence of chloramphenicol by broth microdilution assay (reference value: 1024 ug/ml); assay type: functional
# Pseudomonas aeruginosa [24] = assay: Potentiation of doxycycline-induced antibacterial activity against Pseudomonas aeruginosa 91433 assessed as fold change in doxycycline MIC at 7.6 uM incubated for 18 hrs in presence of doxycycline by broth microdilution assay relative to control; assay type: functional
# Pseudomonas aeruginosa [25] = assay: Potentiation of chloramphenicol-induced antibacterial activity against Pseudomonas aeruginosa 114228 assessed as fold change in chloramphenicol MIC at 7.6 uM incubated for 18 hrs in presence of chloramphenicol by broth microdilution assay relative to control; assay type: functional
# Pseudomonas aeruginosa [26] = assay: Potentiation of chloramphenicol-induced antibacterial activity against Pseudomonas aeruginosa 101243 assessed as fold change in chloramphenicol MIC at 7.6 uM incubated for 18 hrs in presence of chloramphenicol by broth microdilution assay relative to control; assay type: functional
# Enterobacter cloacae [27] = assay: Potentiation of chloramphenicol-induced antibacterial activity against Enterobacter cloacae ATCC 117029 assessed as fold change in chloramphenicol MIC at 7.6 uM incubated for 18 hrs in presence of chloramphenicol by broth microdilution assay relative to control; assay type: functional
# Pseudomonas aeruginosa [28] = assay: Antibacterial activity against Pseudomonas aeruginosa 262-101856 assessed as reduction in bacterial growth by measuring doxycycline MIC at 8 ug/ml incubated for 18 hrs in presence of doxycycline by broth microdilution assay (reference value: 1024 ug/ml); assay type: functional; settings: dose 8 µg/ml
# Pseudomonas aeruginosa [29] = assay: Antibacterial activity against Pseudomonas aeruginosa 260-97103 assessed as reduction in bacterial growth by measuring chloramphenicol MIC at 8 ug/ml incubated for 18 hrs in presence of chloramphenicol by broth microdilution assay (reference value: 128 ug/ml); assay type: functional; settings: dose 8 µg/ml
smiles,measurement,setting,value
CO[C@H]1/C=C/O[C@@]2(C)Oc3c(C)c(O)c4c(O)c(c(/C=N/N5CCN(Cc6cn(CCCCCCO[C@@H]7[C@@H](O[C@H]8O[C@H](CO)[C@@H](O)[C@H](N)[C@H]8O)[C@H](N)C[C@H](N)[C@H]7O[C@H]7O[C@H](CN)[C@@H](O)C[C@H]7N)nn6)CC5)c(O)c4c3C2=O)NC(=O)/C(C)=C\C=C\[C@H](C)[C@H](O)[C@@H](C)[C@@H](O)[C@@H](C)[C@H](OC(C)=O)[C@@H]1C.Cl.Cl.Cl.Cl.Cl,fractional inhibitory concentration index (FICI),Pseudomonas aeruginosa [1],0.08
same,fold change (FC),Pseudomonas aeruginosa [2],4
same,Activity,Pseudomonas aeruginosa [3],Dose-dependent effect
same,fractional inhibitory concentration index (FICI),Pseudomonas aeruginosa [4],<0.25
same,fold change (FC),Pseudomonas aeruginosa [5],4
same,survival at 75 mg/kg,Pseudomonas aeruginosa [6],10%
same,fold change (FC),Pseudomonas aeruginosa [7],4
same,fold change (FC),Pseudomonas aeruginosa [8],16
same,FIC,Pseudomonas aeruginosa [9],0.063
same,fractional inhibitory concentration index (FICI),Pseudomonas aeruginosa [10],0.31
same,fold change (FC),Pseudomonas aeruginosa [11],8
same,fractional inhibitory concentration index (FICI),Pseudomonas aeruginosa [12],0.56
same,survival at 75 mg/kg,Pseudomonas aeruginosa [13],55%
same,MIC,Pseudomonas aeruginosa [14],8 µg/mL
same,fold change (FC),Pseudomonas aeruginosa [15],4
CO[C@H]1/C=C/O[C@@]2(C)Oc3c(C)c(O)c4c(O)c(c(/C=N/N5CCN(C)CC5)c(O)c4c3C2=O)NC(=O)/C(C)=C\C=C\[C@H](C)[C@H](O)[C@@H](C)[C@@H](O)[C@@H](C)[C@H](OC(C)=O)[C@@H]1C [RIFAMPIN],MIC,Pseudomonas aeruginosa [16],32 µg/mL
CO[C@H]1/C=C/O[C@@]2(C)Oc3c(C)c(O)c4c(O)c(c(/C=N/N5CCN(Cc6cn(CCCCCCCCCCCCO[C@@H]7[C@@H](O[C@H]8O[C@H](CO)[C@@H](O)[C@H](N)[C@H]8O)[C@H](N)C[C@H](N)[C@H]7O[C@H]7O[C@H](CN)[C@@H](O)C[C@H]7N)nn6)CC5)c(O)c4c3C2=O)NC(=O)/C(C)=C\C=C\[C@H](C)[C@H](O)[C@@H](C)[C@@H](O)[C@@H](C)[C@H](OC(C)=O)[C@@H]1C.O=C(O)C(F)(F)F.O=C(O)C(F)(F)F.O=C(O)C(F)(F)F.O=C(O)C(F)(F)F.O=C(O)C(F)(F)F,MIC,Pseudomonas aeruginosa [17],0.5 µg/mL
same,fold change (FC),Enterobacter cloacae [18],0
same,MIC,Pseudomonas aeruginosa [19],0.0625 µg/mL
same,MIC,Pseudomonas aeruginosa [20],512 µg/mL
same,fold change (FC),Pseudomonas aeruginosa [21],4
same,MIC,Pseudomonas aeruginosa [22],0.125 µg/mL
same,MIC,Pseudomonas aeruginosa [23],4 µg/mL
same,fold change (FC),Pseudomonas aeruginosa [24],4
same,fold change (FC),Pseudomonas aeruginosa [25],4
same,fold change (FC),Pseudomonas aeruginosa [26],4
same,fold change (FC),Enterobacter cloacae [27],0
NC[C@H]1O[C@H](O[C@H]2[C@H](O)[C@@H](O[C@H]3O[C@H](CO)[C@@H](O)[C@H](N)[C@H]3O)[C@H](N)C[C@@H]2N)[C@H](N)C[C@@H]1O [TOBRAMYCIN],MIC,Pseudomonas aeruginosa [28],1020 µg/mL
same,MIC,Pseudomonas aeruginosa [29],128 µg/mL

# Reference: ChEMBL document CHEMBL4715829, “Heterodimeric Rifampicin-Tobramycin conjugates break intrinsic resistance of Pseudomonas aeruginosa to doxycycline and chloramphenicol in vitro and in a Galleria mellonella in vivo model” (Eur J Med Chem, 2019)
